Experimental data reported in patent EP4129319A1, “PORE-FORMING ANTIMICROBIAL PEPTIDES” (priority 2021, dated 2023).
Read-outs that look alike come from different tables or passages of the source. Ends that are not written are not given here.

Key:
[1] = test system: Gram-negative Escherichia coli TOP10 strain; type: cell-based; conditions: for Antibacterial activity (MIC in µM) E. coli TOP10: broth microdilution assay
Protocol: (§1) Chemicals. […] (Prague, Czech Republic), and Caslo ApS (Kongens Lyngby, Denmark). […] The bacterial stock was stored at -80°C.
(§2) Broth microdilution assay. Antimicrobial activity of the peptides was investigated against Gram-negative Escherichia coli TOP10 strain and Gram-positive Staphylococcus carnosus CCM 4838T using broth microdilution assay, based on which the inventors determined the bacterial minimum inhibition concentration (MIC). After cross streaking with bacteria, the petri dishes (with MHA) were incubated for 24 h at 37 °C. Overnight grown cultures were then sub-cultured for 4-6 h at 37 °C in test tubes containing MHB. The sub-cultured solutions were subsequently diluted to a standard concentration of 10^6 colony forming units (CFU) per mL. Cell counts were determined by measuring the optical density at 600 nm. In a flat-bottomed 96 well plate, the inventors prepared a dilution series for the peptides and for the reference antibiotic ampicillin from 50 to 0.1 µM concentration, which was then inoculated with bacteria and incubated for 24 h at 37 °C. Growth control wells were free from peptides or ampicillin to show the viability of the bacteria, and sterility control wells were free from bacterial inoculation to verify the sterility of the medium. The bacterial growth was visually evaluated based on the turbidity. MIC was determined as the lowest concentrated well where no visible bacterial growth was observed. To test the bacteriostatic or bacteriocidal activity of the peptides, 50 µl solution from the highest concentrated well (i.e., 50 µM) was transferred to a test tube containing 4 mL sterile MHB and incubated for 24 h at 37 °C under constant stirring. Streaking of the same solution was done on MHA containing petri dishes and incubated for 24 h at 37 °C to confirm the morphology of the colonies grown. Experiments were performed in triplicates.

[2] = test system: Gram-positive Staphylococcus carnosus CCM 4838T; type: cell-based
Protocol: as §1, §2

[3] = test system: human dermal fibroblast (HDF) cell lines; assay: Neutral red uptake assay (cytotoxicity); type: cell-based
Protocol: Neutral red uptake assay. To evaluate the cytotoxicity of the peptides against human dermal fibroblast (HDF) cell lines, the inventors purchased the neutral red uptake assay from Essence Line (Praha, Czech Republic). The initial cell culture was sub-cultured in supplemented Dulbecco's Modified Eagle Medium (DMEM) and diluted to a cell density of 1 × 10^5 cells/mL. The diluted culture was then seeded into the wells (1 × 10^4

[4] = test system: human red blood cells (HRBCs); type: cell-based
Protocol: as §1
Hemolysis assay. Hemolytic toxicity of the peptides was evaluated from their ability to lyse the fresh human red blood cells (HRBCs) collected from the University Hospital (Brno, Czech Republic). To obtain the erythrocyte pellets, the blood samples were centrifuged twice at 700×g and subsequently, once at 1000×g, each for 8 min. at 4 °C, which was followed by thorough washing with PBS. Resuspension of the pellets was done in PBS to obtain 0.5% (vol/vol) RBC suspension. In a well plate with 96 V-shaped bottom wells, the peptides were added in a dilution series from 0.1 to 50 µM concentration. Subsequently, HRBC suspension was added in each well. Negative control wells contained only PBS and HRBC suspension without any peptide (i.e., 0% lysis), and positive control wells included 5 µM melittin in the HRBC suspension. After incubation for 1 h at 37 °C, the well plates were centrifuged at 1000×g for 10 min. at 4 °C. Subsequently, the supernatant was collected in a flat-bottomed well plate and the optical density of the released hemoglobin was measured for each well at 415 nm wavelength. The calculated absorbances from the wells were then normalized against the averaged absorbances of the positive and the negative control wells. EC50 value was calculated from the normalized absorbances indicating 50% hemolysis of HRBCs. Experiments were performed in triplicates with three independent blood samples.

Calcein leakage assay = type: biochemical; conditions: for Extent of leakage (in percentage) at increasing peptide-to-lipid ratio (mol/mol) 1:20 / Extent of leakage (in percentage) at increasing peptide-to-lipid ratio (mol/mol) 1:50 / Extent of leakage (in percentage) at increasing peptide-to-lipid ratio (mol/mol) 1:100 / Extent of leakage (in percentage) at increasing peptide-to-lipid ratio (mol/mol) 1:10: calcein leakage, POPC:POPG (1:1 mol/mol) LUVs; for Extent of leakage (in percentage) at increasing peptide-to-lipid ratio (mol/mol) 1:20: peptide-to-lipid ratio 1:20 (mol/mol); for Extent of leakage (in percentage) at increasing peptide-to-lipid ratio (mol/mol) 1:50: peptide-to-lipid ratio 1:50 (mol/mol); for Extent of leakage (in percentage) at increasing peptide-to-lipid ratio (mol/mol) 1:100: peptide-to-lipid ratio 1:100 (mol/mol); for Extent of leakage (in percentage) at increasing peptide-to-lipid ratio (mol/mol) 1:10: peptide-to-lipid ratio 1:10 (mol/mol); for calcein / vesicle leakage, pore-forming ability (in words): POPC:POPG (1:1) LUVs
Protocol: as §1
Calcein leakage assay. Pore-forming activity of the peptides was tested by their ability to leak the self-quenching fluorescent dye calcein entrapped within POPC:POPG (1:1 mol/mol) large unilamellar vesicles (LUVs). After mixing DiD to the lipid mixture (in the ratio 1:500 mol/mol), a thin lipid film was created by evaporating of the chloroform, traces of which were removed by desiccating overnight. The lipid film was then dissolved in calcein buffer, followed by vigorous vortexing. The lipid suspension was subsequently subjected to 10 freeze-thaw cycles. To obtain uniform LUVs, the sample was passed 50 times back and forth through an extruder stacked with 100 nm pore size polycarbonate membrane filter. Afterwards, the untrapped calcein was removed on a HiTrap Desalting Column (with Sephadex G-25 Superfine resin) by washing with PBS buffer. The concentration of the lipid suspension was then adjusted to 0.02 mM. The concentration of the peptide solution was 0.1 mM. The inventors monitored the peptide-induced release of calcein from LUVs by the increase in fluorescence intensity after adding increasing amounts of peptides to the LUVs under constant stirring at 25 °C. The investigated range of peptide/lipid molecular ratio was from 1:100 to 1:10. The excitation and emission wavelengths were set to 495 nm and 520 nm, respectively. Maximum fluorescence intensity was obtained by disrupting all the vesicles in the end by adding 10% Triton X-100. Experiments were performed in triplicates with independently prepared lipid vesicles.

[5] = hemolysis assay, HRBCs, read-out: Toxicity (EC50 in µM) HRBCs

| Substance | Antibacterial activity (MIC in µM) E. coli TOP10 [1] [µM] | Antibacterial activity (MIC in µM) S. carnosus ([2]; CCM 4838) [µM] | EC50 [3] [µM] | EC50 [4, 5] [µM] | Extent of leakage (in percentage) at increasing peptide-to-lipid ratio (mol/mol) 1:20 (Calcein leakage assay) [percentage] | Extent of leakage (in percentage) at increasing peptide-to-lipid ratio (mol/mol) 1:50 (Calcein leakage assay) [percentage] | Extent of leakage (in percentage) at increasing peptide-to-lipid ratio (mol/mol) 1:100 (Calcein leakage assay) [percentage] | EC50 [4] [µM] | Extent of leakage (in percentage) at increasing peptide-to-lipid ratio (mol/mol) 1:10 (Calcein leakage assay) [percentage] | calcein / vesicle leakage, pore-forming ability (in words) (Calcein leakage assay) | Antibacterial activity (MIC in µM) S. carnosus ([2]; broth microdilution assay, S. carnosus) [µM] | MIC against S. carnosus ([2]; 24 h at 37 °C, dilution series 50 to 0.1 µM) [µM] | times higher MIC than that of ampicillin, S. carnosus ([2]; ratio to ampicillin) | EC50 ([4]; 1 h) [µM] | antimicrobial activity against E. coli (in words) [1] | antimicrobial activity against S. carnosus (in words) [2] |
| --- | --- | --- | --- | --- | --- | --- | --- | --- | --- | --- | --- | --- | --- | --- | --- | --- |
| KKKKLKKILKKLFQFINQLDNQLQDIKQNK-NH2 [KDFA2i+9-NH2] | 0.8 | 0.8 | 97 | > 50 | – | – | – | – | – | – | – | – | – | – | – | – |
| RRRRLKKILKKLFQFINQLDNQLQDIRQNR-NH2 [KDFA2i+9-NH2-Rter] | 0.4 | 0.8 | – | 6.9 | 103.3 ± 1.2 | 98.8 ± 1.2 | 65.5 ± 4.2 | – | – | – | – | – | – | – | – | – |
| KKKKLKKILKKLFQFINQLIDDLDDIKKKK-NH2 [KDFC21+9-NH2] | 3.1 | 3.1 | – | – | 99.4 ± 1.6 | 78.2 ± 1.2 | – | > 50 | 102.2 ± 1.1 | – | – | – | – | – | – | – |
| NQKKLQNILNKLFKFIDDLINQLQNIKKQN [KDFA9] | > 50 | > 50 | – | – | 102.0 ± 1.4 | 92.0 ± 0.3 | 62.6 ± 5.2 | > 50 | – | retained | – | – | – | – | – | – |
| KQKKLKKFFNQLIQLINQLFNQLDDFNQNK [KDFB12] | 6.3 | 6.3 | 20 | – | 101.5 ± 0.6 | 98.2 ± 0.7 | 79.4 ± 3.7 | > 50 | – | – | – | – | – | – | – | – |
| KKKKLKKFFKKLIQLINQLFDDLDDFKKKK-NH2 [KDFD24+9-NH2] | 12.5 | – | – | – | 81.5 ± 6.8 | 42.6 ± 11.5 | 13.0 ± 5.2 | > 50 | 98.7 ± 3.2 | – | 12.5 | – | – | – | – | – |
| KKKKVKKVVKKVFSFVDSVDSDVSDVKKKK-NH2 [KDFC16+9SV-NH2] | 25 | – | > 150 | – | – | – | – | > 50 | – | did not cause calcein leakage | – | 0.4 | 4 | – | – | – |
| RRRRLRRILRRLFQFINQLDNQLQDIRQNR-NH2 [RDFA2i+9-NH2] | 1.6 | 0.8 | 16 | – | – | 101.1 ± 0.8 | 65.8 ± 4.1 | 0.9 | – | – | – | – | – | 0.9 | – | – |
| KKKKLKKILKKLFQFIDQLINDLQNIKKKK-NH2 [KDFA5+11-NH2] | 1.6 | 1.6 | – | > 50 | 101.6 ± 1.4 | 78.0 ± 4.3 | 38.6 ± 3.5 | – | – | – | – | – | – | – | – | – |
| KKKKLDDILDDLFQFIKQLKNKLQKIKKKK-NH2 [DKFC16+9-NH2] | > 50 | 1.6 | – | – | 103.3 ± 0.9 | 89.5 ± 3.3 | 50.1 ± 4.1 | > 50 | – | resulted in vesicle leakage | – | – | – | – | did not show activity against E. coli | found active against S. carnosus |
| KKKKLRRILRRLFQFINQLDNQLQDIKQNK-NH2 [RDFA2i+9-NH2-Kter] | 0.2 | 0.4 | – | 49 | – | 100.7 ± 1.0 | 76.0 ± 3.3 | – | – | – | – | – | – | – | – | more effective against S. carnosus |
